Molecular target: T1, IGF-1R (Homo sapiens, UniProt P08069)
T1 construct: expressed in transfected cells
Experiment: Example B-1: IGF-1R Assay (PC3 cells stimulated with IGF1, AlphaLISA on cell lysates)
Format: cell-based
Settings: compound two hours, IGF1 200 ng/mL for 30 min, read-out: IC50, Biological Activity against IGF-1R (Table B1)
Procedure, shortened: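 PC3 cells serum-starved 2 h, treated 2 h with 3-fold serially diluted compound, then stimulated 30 min with IGF1 (200 ng/mL final). Lysates analysed by AlphaLISA; % inhibition calculated relative to vehicle and EC80 controls, IC50 derived.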

T1 sequence (P08069 31-1367): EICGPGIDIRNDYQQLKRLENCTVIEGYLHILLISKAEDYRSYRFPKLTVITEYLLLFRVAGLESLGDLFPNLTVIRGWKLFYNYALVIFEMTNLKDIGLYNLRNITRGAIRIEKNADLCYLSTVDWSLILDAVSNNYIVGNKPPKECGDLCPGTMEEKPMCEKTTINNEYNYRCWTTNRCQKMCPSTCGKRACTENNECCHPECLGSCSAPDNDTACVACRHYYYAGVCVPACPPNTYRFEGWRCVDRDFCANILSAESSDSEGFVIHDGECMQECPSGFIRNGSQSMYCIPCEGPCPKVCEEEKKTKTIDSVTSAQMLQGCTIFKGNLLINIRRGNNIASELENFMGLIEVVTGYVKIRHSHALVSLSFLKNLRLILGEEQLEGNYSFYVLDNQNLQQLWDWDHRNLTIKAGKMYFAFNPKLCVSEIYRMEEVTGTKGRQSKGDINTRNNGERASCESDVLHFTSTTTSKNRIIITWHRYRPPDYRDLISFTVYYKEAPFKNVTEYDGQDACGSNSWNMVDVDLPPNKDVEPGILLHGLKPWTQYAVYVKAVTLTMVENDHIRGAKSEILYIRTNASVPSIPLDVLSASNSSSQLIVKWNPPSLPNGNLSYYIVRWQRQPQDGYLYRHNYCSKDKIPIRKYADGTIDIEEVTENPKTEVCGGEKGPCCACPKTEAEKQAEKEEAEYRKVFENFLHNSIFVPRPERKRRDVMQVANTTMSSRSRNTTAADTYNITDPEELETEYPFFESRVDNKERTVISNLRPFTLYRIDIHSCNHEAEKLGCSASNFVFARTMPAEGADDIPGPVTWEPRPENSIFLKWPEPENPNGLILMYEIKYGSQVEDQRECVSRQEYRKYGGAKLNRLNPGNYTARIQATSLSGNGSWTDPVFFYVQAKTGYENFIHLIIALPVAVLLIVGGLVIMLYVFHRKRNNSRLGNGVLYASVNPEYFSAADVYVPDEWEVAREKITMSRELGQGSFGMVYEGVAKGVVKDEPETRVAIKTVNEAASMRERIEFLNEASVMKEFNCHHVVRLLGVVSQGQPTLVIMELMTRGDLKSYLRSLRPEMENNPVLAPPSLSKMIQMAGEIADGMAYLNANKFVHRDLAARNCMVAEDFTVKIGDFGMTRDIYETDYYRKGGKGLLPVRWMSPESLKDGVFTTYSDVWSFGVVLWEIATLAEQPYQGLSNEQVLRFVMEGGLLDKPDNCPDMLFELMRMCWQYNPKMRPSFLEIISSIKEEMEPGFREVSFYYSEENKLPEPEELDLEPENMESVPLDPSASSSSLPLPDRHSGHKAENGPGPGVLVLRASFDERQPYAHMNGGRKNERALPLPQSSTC

IC50	Compound
≤ 500 nM	CC(C)(C)c1ccc(N2C(=O)N(Cc3ccnc(NC4CCOCC4)c3)C(C)(C)C2=O)cc1 [Compound 266, 3-(4-(tert-butyl)phenyl)-5,5-dimethyl-1-((2-((tetrahydro-2H-pyran-4-yl)amino)pyridin-4-yl)methyl)imidazolidine-2,4-dione]
≤ 500 nM	CC1(C)C(=O)N(c2ccc(SC(F)(F)F)cc2)C(=O)N1Cc1ccnc(Nc2ncccn2)c1 [Compound 399, 5,5-dimethyl-1-((2-(pyrimidin-2-ylamino)pyridin-4-yl)methyl)-3-(4-((trifluoromethyl)thio)phenyl) imidazolidine-2,4-dione]
≤ 500 nM	CC(C)(C)c1ccc(N2C(=O)N(Cc3ccnc(NC4CC(F)(F)C4)c3)C(C)(C)C2=O)cc1 [Compound 270, 3-(4-(tert-butyl)phenyl)-1-((2-((3,3-difluorocyclobutyl)amino)pyridin-4-yl)methyl)-5,5-dimethylimidazolidine-2,4-dione]
≤ 500 nM	CC(C)Nc1cc(CN2C(=O)N(c3ccc(C4(C)CC(F)(F)C4)cc3)C(=O)C2(C)C)ccn1 [Compound 116, 3-(4-(3,3-difluoro-1-methylcyclobutyl)phenyl)-1-((2-(isopropylamino)pyridin-4-yl)methyl)-5,5-dimethylimidazolidine-2,4-dione]
2000 to 10000 nM	CC1(C)C(=O)N(c2ccc(C(F)(F)F)cc2)C(=O)N1Cc1ccnc(N)c1 [Compound 91, 1-((2-aminopyridin-4-yl)methyl)-5,5-dimethyl-3-(4-(trifluoromethyl)phenyl)imidazolidine-2,4-dione]
500 to 2000 nM	CC(C)(C)Nc1cc(CN2C(=O)N(c3ccc(SC(F)(F)F)cc3)C(=O)C2(C)C)ccn1 [Compound 387, 1-((2-(tert-butylamino)pyridin-4-yl)methyl)-5,5-dimethyl-3-(4-((trifluoromethyl)thio)phenyl) imidazolidine-2,4-dione]
≤ 500 nM	CC1(C)CNc2cc(N3C(=O)N(Cc4ccnc(N)c4)C(C)(C)C3=O)ccc21 [Compound 401, 1-((2-aminopyridin-4-yl)methyl)-3-(3,3-dimethylindolin-6-yl)-5,5-dimethylimidazolidine-2,4-dione]
≤ 500 nM	COCC(C)Nc1cc(CN2C(=O)N(c3ccc(C(C)(C)C)cc3)C(=O)C2(C)C)ccn1 (centres unmarked) [Compound 265, 3-(4-(tert-butyl)phenyl)-1-((2-((1-methoxypropan-2-yl)amino)pyridin-4-yl)methyl)-5,5-dimethylimidazolidine-2,4-dione]
≤ 500 nM	CC1(C)C(=O)N(c2ccc(SC(F)(F)F)cc2)C(=O)N1Cc1ccnc(NC(=O)NC2CCOCC2)c1 [Compound 306, 1-(4-((5,5-dimethyl-2,4-dioxo-3-(4-((trifluoromethyl)thio)phenyl)imidazolidin-1-yl)methyl)pyridin-2-yl)-3-(tetrahydro-2H-pyran-4-yl)urea]
≤ 500 nM	CN(C)CC(=O)Nc1cc(CN2C(=O)N(c3ccc(SC(F)(F)F)cc3)C(=O)C2(C)C)ccn1 [Compound 348, N-(4-((5,5-dimethyl-2,4-dioxo-3-(4-((trifluoromethyl)thio)phenyl)imidazolidin-1-yl)methyl)pyridin-2-yl)-2-(dimethylamino)acetamide]
2000 to 10000 nM	Nc1cc(CN2C(=O)N(c3ccc(SC(F)(F)F)cc3)C(=O)C23CCCCC3)ccn1 [Compound 293, 1-((2-aminopyridin-4-yl)methyl)-3-(4-((trifluoromethyl)thio)phenyl)-1,3-diazaspiro[4.5]decane-2,4-dione]
500 to 2000 nM	CC1(C)C(=O)N(c2ccc(C3CCOC3)cc2)C(=O)N1Cc1ccnc(N)c1 (centres unmarked) [Compound 85, 1-((2-aminopyridin-4-yl)methyl)-5,5-dimethyl-3-(4-(tetrahydrofuran-3-yl)phenyl)imidazolidine-2,4-dione]
2000 to 10000 nM	CC(C)Nc1nccc(CN2C(=O)N(c3ccc(SC(F)(F)F)cc3)C(=O)C2(C)C)c1F [Compound 382, 1-((3-fluoro-2-(isopropylamino)pyridin-4-yl)methyl)-5,5-dimethyl-3-(4-((trifluoromethyl)thio)phenyl) imidazolidine-2,4-dione]
500 to 2000 nM	CC(C)C#Cc1cc(CN2C(=O)N(c3ccc(SC(F)(F)F)cc3)C(=O)C2(C)C)cnc1N [Compound 385, 1-((6-amino-5-(3-methylbut-1-yn-1-yl)pyridin-3-yl)methyl)-5,5-dimethyl-3-(4-((trifluoromethyl)thio)phenyl) imidazolidine-2,4-dione]
≤ 500 nM	CC1(C)C(=O)N(c2ccc(C3(C(F)(F)F)CC3)cc2)C(=O)N1Cc1ccnc2[nH]ccc12 [Compound 7, 1-((1H-pyrrolo[2,3-b]pyridin-4-yl)methyl)-5,5-dimethyl-3-(4-(1-(trifluoromethyl)cyclopropyl)phenyl)imidazolidine-2,4-dione]
≤ 500 nM	CC1(C)C(=O)N(c2ccc(C3(C#N)CC3)cc2)C(=O)N1Cc1ccnc(N)c1 [Compound 82, 1-(4-(3-((2-aminopyridin-4-yl)methyl)-4,4-dimethyl-2,5-dioxoimidazolidin-1-yl)phenyl)cyclopropane-1-carbonitrile]

IC50	Compound
500 to 2000 nM	CC(C)Nc1cc(CN2C(=O)N(c3ccc(C4(F)CC4)cc3)C(=O)C2(C)C)ccn1 [Compound 99, 3-(4-(1-fluorocyclopropyl)phenyl)-1-((2-(isopropylamino)pyridin-4-yl)methyl)-5,5-dimethylimidazolidine-2,4-dione]
500 to 2000 nM	CC(C)Nc1cc(CN2C(=O)N(c3ccc(C4CC(F)(F)C4)cc3)C(=O)C2(C)C)ccn1 [Compound 102, 3-(4-(3,3-difluorocyclobutyl)phenyl)-1-((2-(isopropylamino)pyridin-4-yl)methyl)-5,5-dimethylimidazolidine-2,4-dione]
≤ 500 nM	CC1(C)C(=O)N(c2ccc(SC(F)(F)F)cc2)C(=O)N1Cc1ccnc(NC(=O)NC2CCC(F)(F)C2)c1 (centres unmarked) [Compound 374, 1-(3,3-difluorocyclopenty)-3-(4-((5,5-dimethyl-2,4-dioxo-3-(4-((trifluoromethyl)thio)phenyl)imidazolidin-1-yl)methyl)pyridin-2-yl)urea]
≤ 500 nM	Cc1ccncc1Nc1cc(CN2C(=O)N(c3ccc(SC(F)(F)F)cc3)C(=O)C2(C)C)ccn1 [Compound 358, 5,5-dimethyl-1-((2-((4-methylpyridin-3-yl)amino)pyridin-4-yl)methyl)-3-(4-((trifluoromethyl)thio)phenyl) imidazolidine-2,4-dione]
500 to 2000 nM	CC1(C)C(=O)N(c2ccc(SC(F)(F)F)cc2)C(=O)N1Cc1cccc(Nc2c(Nc3ccccc3)c(=O)c2=O)n1 [Compound 367, 1-((6-((3,4-dioxo-2-(phenylamino)cyclobut-1-en-1-yl)amino)pyridin-2-yl)methyl)-5,5-dimethyl-3-(4-((trifluoromethyl)thio)phenyl) imidazolidine-2,4-dione]
500 to 2000 nM	CC1(c2ccc(N3C(=O)N(Cc4ccnc(N)c4)C(C)(C)C3=O)cc2)COC1 [Compound 90, 1-((2-aminopyridin-4-yl)methyl)-5,5-dimethyl-3-(4-(3-methyloxetan-3-yl)phenyl)imidazolidine-2,4-dione]
500 to 2000 nM	CC1(C)C(=O)N(c2ccc(C3=CCCCC3)cc2)C(=O)N1Cc1ccnc(N)c1 [Compound 86, 1-((2-aminopyridin-4-yl)methyl)-5,5-dimethyl-3-(2′,3′,4′,5′-tetrahydro-[1,1′-biphenyl]-4-yl)imidazolidine-2,4-dione]
500 to 2000 nM	CC1(C)C(=O)N(c2ccc3c(C(F)(F)F)n[nH]c3c2)C(=O)N1Cc1ccnc(N)c1 [Compound 254, 1-((2-aminopyridin-4-yl)methyl)-5,5-dimethyl-3-(3-(trifluoromethyl)-1H-indazol-6-yl)imidazolidine-2,4-dione]
≤ 500 nM	CC1(C)C(=O)N(c2ccc(SC(F)(F)F)cc2)C(=O)N1Cc1ccnc(NCC2CC2)c1 [Compound 311, 1-((2-((cyclopropylmethyl)amino)pyridin-4-yl)methyl)-5,5-dimethyl-3-(4-((trifluoromethyl)thio)phenyl) imidazolidine-2,4-dione]
> 10000 nM	CC(C)[C@H]1C(=O)N(c2ccc(SC(F)(F)F)cc2)C(=O)N1Cc1ccnc(N)c1 [Compound 290, (S)-1-((2-aminopyridin-4-yl)methyl)-5-isopropyl-3-(4-((trifluoromethyl)thio)phenyl)imidazolidine-2,4-dione]
≤ 500 nM	CC(C)(C)c1ccc(N2C(=O)N(Cc3ccnc(NC45CC(C4)C5)c3)C(C)(C)C2=O)cc1 [Compound 276, 1-((2-(bicyclo[1.1.1]pentan-1-ylamino)pyridin-4-yl)methyl)-3-(4-(tert-butyl)phenyl)-5,5-dimethylimidazolidine-2,4-dione]
2000 to 10000 nM	CSc1ccc(N2C(=O)N(Cc3ccnc(N)c3)C(C)(C)C2=O)cc1 [Compound 395, 1-((2-aminopyridin-4-yl)methyl)-5,5-dimethyl-3-(4-(methylthio)phenyl)imidazolidine-2,4-dione]
≤ 500 nM	CC1(C)C(=O)N(c2ccc(C(C)(C)C(F)(F)F)cc2)C(=O)N1Cc1ccnc(N)c1 [Compound 95, 1-((2-aminopyridin-4-yl)methyl)-5,5-dimethyl-3-(4-(1,1,1-trifluoro-2-methylpropan-2-yl)phenyl)imidazolidine-2,4-dione]
≤ 500 nM	CC1(C)C(=O)N(c2ccc(SC(F)(F)F)cc2)C(=O)N1Cc1ccnc(NC(=O)Nc2ccncc2)c1 [Compound 398, 1-(4-((5,5-dimethyl-2,4-dioxo-3-(4-((trifluoromethyl)thio)phenyl)imidazolidin-1-yl)methyl)pyridin-2-yl)-3-(pyridin-4-yl)urea]
≤ 500 nM	CC1(C)C(=O)N(c2ccc(SC(F)(F)F)cc2)C(=O)N1Cc1ccnc(NC(=O)NC2COC2)c1 [Compound 308, 1-(4-((5,5-dimethyl-2,4-dioxo-3-(4-((trifluoromethyl)thio)phenyl)imidazolidin-1-yl)methyl)pyridin-2-yl)-3-(oxetan-3-yl)urea]

Compound	IC50
CC1(C)C(=O)N(c2ccc(C#N)cc2)C(=O)N1Cc1ccnc(N)c1 [Compound 80, 4-(3-((2-aminopyridin-4-yl)methyl)-4,4-dimethyl-2,5-dioxoimidazolidin-1-yl)benzonitrile]	500 to 2000 nM

From US20250145585A1, “HETEROCYCLIC INHIBITORS OF IGF-1R FOR TREATMENT OF DISEASE” (HORIZON THERAPEUTICS IRELAND DAC, priority 2023, published 2025)
